Test results: US20230122967A1, “NOVEL COMPOUNDS AS INHIBITORS OF PCSK9” (SHENGKE PHARMACEUTICALS (JIANGSU) LTD., priority 2020, published 2023)

What was measured:
Assay type in all cases: cell-based
PCSK9 = PCSK9 ELISA on HepG2 culture medium; settings: HepG2 cells, 24 hr
Protocol: (§1) HepG2 cells (ATCC, Cat.: HB-8065) were maintained in Growth medium-Eagle's Minimum Essential Medium (Corning, 10-010-CVR), 10% FBS (Gibco, 10099-141), Penicillin (100 units/mL), Streptomycin ([…]). HepG2 cells were incubated at 37° C., 5% CO2. HepG2 cells were plated in flat bottom 96-well plates (Corning, 3599) at 40,000 cells/well in 100 μL of growth media. After an overnight incubation, the culture media were changed to serum-free OptiMEM media (Gibco, 31985-062), 90 μL/well. Vehicle, PF-06446846 hydrochloride, berberine, or test compound was added to the culture media, 10 μL/well. After 24 hr medium was harvested, and 10 μL of the medium were used for the PCSK9 ELISA (R&D Systems, SPC900).

PCSK9 mRNA = experiment: RT-Q-PCR analysis of PCSK9 mRNA in HepG2 cells; settings: Homo sapiens, 24 h, normalized to GAPDH, read-out: HepG2 Q-PCR PCSK9 mRNA level decrease (10 μM)
Protocol: HepG2 cells (ATCC, Cat.: HB-8065) were maintained in Growth medium-Eagle's Minimum Essential Medium (Corning, 10-010-CVR), 10% FBS (Gibco, 10099-141), Penicillin (100 units/mL), Streptomycin ([…]). HepG2 cells were incubated at 37° C., 5% CO2.
Cells were cultured in growth medium as described above and treated with the vehicle, Berberine or test compound for 24 h. The RNA was extracted using the Total RNA mini Kit (Tiangen, Beijing, China) according to the manufacturer's instructions. Reverse transcription was carried out using the High-Capacity cDNA reverse transcription kit (Thermo Fisher Scientific). Quantitative real-time PCR was performed using a reaction mixture containing cDNA, specific primers [PCSK9, 5′-[…]-3′ (forward) and 5′-[…]-3′ (reverse); GAPDH, 5′-[…]-3′ (forward) and 5′-[…]-3′ (reverse)] and Maxima SYBR Green/ROX qPCR Master Mix (Thermo Fisher Scientific). PCR amplification was carried out in a Real-Time PCR System. The real-time PCR conditions were 37° C. 10 min; 95° C. 10 min; 95° C. 15 s, 60° C. 30 s, 72° C. 30 s, 40 cycle. The amount of % RNA was normalized to the GAPDH level in the same samples.

HepG2 cells [1] = experiment: Measurement of Dil-LDL uptake in HepG2 cells; settings: Homo sapiens, 24 h, 10 μM for 20 h, then 20 μg/mL Dil-LDL 4 h, read-out: LDL uptake 10 μM (fold of vehicle)
Protocol: HepG2 cells were maintained in MEM supplemented with 10% FBS. The cells were seeded in 96 well black plates at a density of 1×10^4 cells per well and grown to 70-80% confluence. Afterwards, cells were changed to serum-free Opti-MEM for 1 h and followed by incubation with 10 μM Berberine or compounds of the present disclosure for 20 h. Then, 20 μg/mL Dil-LDL was added and incubated at 37° C. in the dark for additional 4 h. Cells were extensively washed three times with PBS, and LDL uptake was determined on a fluorescence plate reader at an excitation wavelength of 520 nm and emission wavelength of 580 nm.

HepG2 cells [2] = experiment: Cell viability assay (HepG2 Survival assay, CellTiter-Glo); settings: 24 hr, cellular ATP levels
Protocol: as §1, with “black clear” for “flat”, “3063)” for “3599)”, “cellular ATP levels” for “medium was harvested, and 10 μL of the medium”, “measured using CellTiter-Glo® 2.0 Assay (Promega, G9242).” for “used for the PCSK9 ELISA (R&D Systems, SPC900).”

## COc1ccc2cc3[n+](cc2c1OC)CCc1cc2c(cc1-3)OCO2 [Berberine, reference compound]
PCSK9
  HepG2 PCSK9 ELISA (10 μM) % inhibition: 52%
PCSK9 mRNA
  inhibition at 10 µM: 35%
HepG2 cells [1]
  fold induction at 10 µM: 2.54

## CN(C(=O)CN(CC(=O)Nc1ccc(Oc2ccc(F)cc2)cc1)C(=O)c1cc2cccc(F)c2[nH]1)C1Cc2ccccc2C1 [Compound 201-29]
HepG2 cells [2]
  HepG2 Survival assay (10 μM): 100%
PCSK9
  HepG2 PCSK9 ELISA (10 μM) % inhibition: 61%
PCSK9 mRNA
  inhibition at 10 µM: 88.5%
HepG2 cells [1]
  fold induction at 10 µM: 3.07

## CN(C(=O)CN(CC(=O)Nc1ccc(Oc2ccccc2)cc1)C(=O)c1cc2cccc(F)c2[nH]1)C1Cc2ccccc2C1 [Compound 201-31]
HepG2 cells [2]
  HepG2 Survival assay (10 μM): 100%
PCSK9
  HepG2 PCSK9 ELISA (10 μM) % inhibition: 48%
PCSK9 mRNA
  inhibition at 10 µM: 73%
HepG2 cells [1]
  fold induction at 10 µM: 2.07

## CN(C(=O)CN(CC(=O)Nc1ccc(Oc2ccc(F)cc2)cc1)C(=O)c1cc2cccc(F)c2[nH]1)C1CCCC1 [Compound 201-65]
HepG2 cells [2]
  HepG2 Survival assay (10 μM): 100%
PCSK9
  HepG2 PCSK9 ELISA (10 μM) % inhibition: 85%
PCSK9 mRNA
  inhibition at 10 µM: 87%
HepG2 cells [1]
  fold induction at 10 µM: 1.84

## CN(C(=O)CN(CC(=O)Nc1ccc(Oc2ccccc2)cc1)C(=O)c1cc2cccc(F)c2[nH]1)C1CCCC1 [Compound 201-70]
HepG2 cells [2]
  HepG2 Survival assay (10 μM): 100%
PCSK9
  HepG2 PCSK9 ELISA (10 μM) % inhibition: 76%
PCSK9 mRNA
  inhibition at 10 µM: 85%
HepG2 cells [1]
  fold induction at 10 µM: 1.69

## CN(Cc1ccccc1F)C(=O)CN(CC(=O)Nc1ccc(Oc2ccccc2)cc1)C(=O)c1cc2cccc(F)c2[nH]1 [Compound 201-74]
HepG2 cells [2]
  HepG2 Survival assay (10 μM): 96%
PCSK9
  HepG2 PCSK9 ELISA (10 μM) % inhibition: 77%
PCSK9 mRNA
  inhibition at 10 µM: 88%
HepG2 cells [1]
  fold induction at 10 µM: 3.92

## CN(C(=O)CN(CC(=O)Nc1ccc(Oc2ccc(F)c(F)c2)cc1)C(=O)c1cc2cccc(F)c2[nH]1)C1CCCC1 [Compound 201-75]
HepG2 cells [2]
  HepG2 Survival assay (10 μM): 100%
PCSK9
  HepG2 PCSK9 ELISA (10 μM) % inhibition: 80%
PCSK9 mRNA
  inhibition at 10 µM: 90%
HepG2 cells [1]
  fold induction at 10 µM: 2.92

## CN(C(=O)CN(CC(=O)Nc1ccc(Oc2ccc(F)c(F)c2)cc1)C(=O)c1cc2cccc(F)c2[nH]1)C1Cc2ccccc2C1 [Compound 201-80]
HepG2 cells [2]
  HepG2 Survival assay (10 μM): 100%
PCSK9
  HepG2 PCSK9 ELISA (10 μM) % inhibition: 80%
PCSK9 mRNA
  inhibition at 10 µM: 88%
HepG2 cells [1]
  fold induction at 10 µM: 3.07

## CN(C(=O)CN(CC(=O)Nc1ccc(Oc2ccc(F)cc2)cc1)C(=O)c1ccc(C(F)(F)F)o1)C1Cc2ccccc2C1 [Compound 201-104]
HepG2 cells [2]
  HepG2 Survival assay (10 μM): 100%
PCSK9
  HepG2 PCSK9 ELISA (10 μM) % inhibition: 83%
PCSK9 mRNA
  inhibition at 10 µM: 86%
HepG2 cells [1]
  fold induction at 10 µM: 4.15

## CN(Cc1ccccc1F)C(=O)CN(CC(=O)Nc1ccc(Oc2ccccc2)cc1)C(=O)c1ccc(C(F)(F)F)o1 [Compound 201-109]
HepG2 cells [2]
  HepG2 Survival assay (10 μM): 100%
PCSK9
  HepG2 PCSK9 ELISA (10 μM) % inhibition: 92%
PCSK9 mRNA
  inhibition at 10 µM: 90%
HepG2 cells [1]
  fold induction at 10 µM: 4.69

## CN(C(=O)CN(CC(=O)Nc1ccc(Oc2ccccc2)cc1)C(=O)c1ccc(C(F)(F)F)o1)C1Cc2ccccc2C1 [Compound 201-110]
HepG2 cells [2]
  HepG2 Survival assay (10 μM): 100%
PCSK9
  HepG2 PCSK9 ELISA (10 μM) % inhibition: 84%
PCSK9 mRNA
  inhibition at 10 µM: 88%
HepG2 cells [1]
  fold induction at 10 µM: 4.76
